Tested on: carrageenin edema
Assay: Carrageenin edema inhibition activity (for rats)
Format: in vivo
Conditions: Rattus norvegicus, ip; for inhibition in vivo at 50 mg/kg: 50 mg/kg i.p.; for inhibition in vivo at 100 mg/kg: 100 mg/kg i.p.
Description: In Table 2 below, carrageenin edema inhibition activity (for rats) of representative compounds of the present invention is illustrated: […]

SMILES | inhibition in vivo at 50 mg/kg [%] | inhibition in vivo at 100 mg/kg [%]
Nc1nc(NC(=O)c2cccnc2)nc(-c2ccc(F)cc2)n1 [Compound 10] | 53.8 | 56.1
Nc1nc(NC(=O)c2cccnc2)nc(-c2ccc(Cl)c(Cl)c2)n1 [Compound 13] | 40.9 | 49.2
Nc1nc(NC(=O)c2cccnc2)nc(-c2ccccc2Cl)n1 [Compound 3] | 37.1 | 45.5
Nc1nc(NC(=O)c2cccnc2)nc(-c2cc(Cl)ccc2Cl)n1 [Compound 15] | 43.2 | 54.5
Nc1nc(NC(=O)c2cccnc2)nc(-c2cc(Br)ccc2Br)n1 [Compound 21] | 35.6 | 40.6
Nc1nc(NC(=O)c2cccnc2)nc(-c2ccc(Cl)cc2Br)n1 [Compound 28] | 42.8 | 48.4
Nc1nc(NC(=O)c2cccnc2)nc(-c2cc(Cl)ccc2F)n1 [Compound 19] | 34.2 | 47.8
Nc1nc(NC(=O)c2cccnc2)nc(-c2cccc(F)c2)n1 [Compound 11] | 49 | 47.1
Nc1nc(NC(=O)c2cccnc2)nc(-c2cccc(Br)c2)n1 [Compound 5] | 41.9 | 40.2
Nc1nc(NC(=O)c2cccnc2)nc(-c2ccc(Cl)cc2F)n1 [Compound 20] | 42.7 | 50.8
Nc1nc(NC(=O)c2cccnc2)nc(-c2ccc(Cl)cc2)n1 [Compound 1] | 56.8 | 57.2
Nc1nc(NC(=O)c2cccnc2)nc(-c2cc(Br)ccc2Cl)n1 [Compound 29] | 38.7 | 49.2
Nc1nc(NC(=O)c2cccnc2)nc(-c2ccc(Br)cc2)n1 [Compound 4] | 44.4 | 49.3
Nc1nc(NC(=O)c2cccnc2)nc(-c2cccc(Cl)c2)n1 [Compound 2] | 43.6 | 54.2
Nc1nc(NC(=O)c2cccnc2)nc(-c2ccccc2I)n1 [Compound 9] | 38.1 | 40.5
Nc1nc(NC(=O)c2cccnc2)nc(-c2cc(F)ccc2F)n1 [Compound 27] | 51.2 | 53.6
Nc1nc(NC(=O)c2cccnc2)nc(-c2cc(F)ccc2Cl)n1 [Compound 24] | 46.5 | 45.1
Nc1nc(NC(=O)c2cccnc2)nc(-c2cc(F)ccc2Br)n1 [Compound 25] | 40.7 | 45.9

— US4333933A, “Benzoguanamine derivatives, their production and pharmaceutical compositions containing the same” (Nippon Shinyaku Co., Ltd., priority 1980, dated 1982)
